Experimental data: patent US20230381129A1, “PERMETRIN FOR USE IN THE TREATMENT OF DEMODEX SPP INFESTATION” (priority 2020, published 2023)
Counter-ions that a name gives are not always drawn.

Tests used:
[1] = system: Demodex mites; assay: In vitro survival study of Demodex mites on a glass slide without a coverslip; parameters: species or system Demodex spp.
Description: At least ten eyelashes from the upper and lower eyelids of both eyes were randomly collected from all subjects from the subsequent groups. The collected material was assessed in a UB-203i light microscope with a five-point revolver bowl and a vision track with a magnification of 4×, 10×, 20×, 40× and 100×, archiving the results with a digital camera type Toupcam TP 601300A from Touptek Photonics installed in the device.
In the case of the presence of Demodex mites, several dozen different chemical compounds in various concentrations with a potential demodicidal effect were used on the glass slide without the use of a coverslip. […] The in vitro test results for permethrin and fluralaner were archived using a Toupcam TP 601300A digital camera from Touptek Photonics mounted on the device.

[2] = system: Demodex spp. infestation; assay: Topical use of shampoo or shower gel in a person with inflammation and redness; assay type: in vivo, humans; conditions: shampoo or shower gel containing 0.75% active, 3 times a week for 2 months, human
Source text: A shampoo or shower gel containing 0.75% permethrin is used 3 times a week for a period of 2 months.
Shampoo or shower gel containing 0.75% fluralaner is used 3 times a week for a period of 2 months.
A shampoo or shower gel containing 0.5% fluralaner and 0.5% permethrin is used 3 times a week for a period of 2 months.

Ivermectin
Time of Survival of Demodex mites ([1]; concentration 1%): more than 15 minutes

OO [Hydrogen peroxide (hydrogen peroxide), Hydrogen peroxide]
Time of Survival of Demodex mites ([1]; concentration 3%): more than 15 minutes

CN(C)C(=O)Oc1cccc([N+](C)(C)C)c1 [Polstigmine (neostigmine methyl sulfate), neostigmine methyl sulfate]
Time of Survival of Demodex mites ([1]; concentration 0.05%): more than 15 minutes

NC(N)=O [Urea]
Time of Survival of Demodex mites ([1]; concentration 20%): more than 15 minutes

O=C(O)c1cn(C2CC2)c2cc(N3CCNCC3)c(F)cc2c1=O [Ciprofloxacin]
Time of Survival of Demodex mites ([1]; concentration 0.30%): more than 15 minutes

CN1[C@@H]2CC[C@H]1CC(OC(=O)C(CO)c1ccccc1)C2.CN1[C@@H]2CC[C@H]1CC(OC(=O)C(CO)c1ccccc1)C2.O=S(=O)(O)O (stereo partly drawn) [Atropinum sulfuricum]
Time of Survival of Demodex mites ([1]; concentration 1%): more than 15 minutes

CN(C)CCOC(=O)C(c1ccccc1)C1(O)CCCC1 (stereo not drawn) [Cyclopentolat]
Time of Survival of Demodex mites ([1]; concentration 1%): more than 15 minutes

C[C@H]1COc2c(N3CCN(C)CC3)c(F)cc3c(=O)c(C(=O)O)cn1c23 [Levofloxacin]
Time of Survival of Demodex mites ([1]; concentration 0.50%): more than 15 minutes

CC1(C)C(C=C(Cl)Cl)C1C(=O)OCc1cccc(Oc2ccccc2)c1 (stereo not drawn) [Permethrin]
Eyelid margin inflammation and eye symptoms (burning, itching, dry eyes, scales and deposits) after treatment [2]: reduction in inflammation of the eyelid margins | Skin inflammation symptoms and redness after treatment [2]: visible improvement | Time of Survival of Demodex mites ([1]; concentration 10%): 5 min

NC[C@H]1O[C@H](O[C@H]2[C@H](O)[C@@H](O[C@H]3O[C@H](CO)[C@@H](O)[C@H](N)[C@H]3O)[C@H](N)C[C@@H]2N)[C@H](N)C[C@@H]1O [Tobramycin]
Time of Survival of Demodex mites ([1]; concentration 0.30%): more than 15 minutes

CC=CC(=O)N(CC)c1ccccc1C [Crotamiton]
Time of Survival of Demodex mites ([1]; concentration 10%): more than 15 minutes

CCO [Ethanol]
Time of Survival of Demodex mites ([1]; concentration 98%): more than 15 minutes

NCC[C@H](O)C(=O)N[C@@H]1C[C@H](N)[C@@H](O[C@H]2O[C@H](CN)[C@@H](O)[C@H](O)[C@H]2O)[C@H](O)[C@H]1O[C@H]1O[C@H](CO)[C@@H](O)[C@H](N)[C@H]1O [Amikacin]
Time of Survival of Demodex mites ([1]; concentration 0.30%): more than 15 minutes

Gentamicin
Time of Survival of Demodex mites ([1]; concentration 0.30%): more than 15 minutes

CC[C@@H]1C(=O)OC[C@@H]1Cc1cncn1C.Cl [Pilocarpinum hydrochloridum]
Time of Survival of Demodex mites ([1]; concentration 2%): more than 15 minutes

N=C(NCCCCCCNC(=N)NC(=N)Nc1ccc(Cl)cc1)NC(=N)Nc1ccc(Cl)cc1.O=C(O)[C@H](O)[C@@H](O)[C@H](O)[C@H](O)CO.O=C(O)[C@H](O)[C@@H](O)[C@H](O)[C@H](O)CO [Manusan (chlorhexidine digluconate), chlorhexidine digluconate]
Time of Survival of Demodex mites ([1]; concentration 4%): more than 15 minutes

O=C(OCc1ccccc1)c1ccccc1 [Novosscabin (benzyl benzoate), benzyl benzoate]
Time of Survival of Demodex mites ([1]; concentration 30%): more than 15 minutes

Cc1cc(C2=NOC(c3cc(Cl)cc(Cl)c3)(C(F)(F)F)C2)ccc1C(=O)NCC(=O)NCC(F)(F)F (stereo not drawn) [Fluralaner, 4-[(5R5)-5-(3,5-dichlorophenyl)-4,5-dihydro-5-(trifluoromethyl)-1,2-oxazol-3-yl]-N-[2-oxo-2-(2,2,2-trifluoroethylamino)ethyl]-o-toluamide]
Eyelid margin inflammation and eye symptoms (burning, itching, dry eyes, scales and deposits) after treatment [2]: reduction in inflammation of the eyelid margins | Skin inflammation symptoms and redness after treatment [2]: visible improvement | Time of Survival of Demodex mites ([1]; concentration 10%): 6 min

CNC[C@H](O)c1cccc(O)c1.Cl [Phenylephrini hydrochloridum]
Time of Survival of Demodex mites ([1]; concentration 10%): more than 15 minutes

CC1COc2c(N3CCN(C)CC3)c(F)cc3c(=O)c(C(=O)O)cn1c23 (stereo not drawn) [Ofloxacin]
Time of Survival of Demodex mites ([1]; concentration 0.30%): more than 15 minutes
